Consider 6 molecules from patent US9790209B2, “Kinase inhibitors” (Respivert Limited, priority 2012, dated 2017).

Where two headings read alike, the source gives them in different places. A value given as a limit tells only on which side of the number the result lay.

For one experiment, the target named is p38 MAPKα (Homo sapiens (Human), UniProt Q16539). In words: p38 MAPKα enzyme inhibition (Method 2), Z-LYTE FRET. The experiment is classed as biochemical. The protocol:
(§1) The enzyme inhibitory activities of compounds disclosed herein are determined by FRET using synthetic peptides labelled with both donor and acceptor fluorophores (Z-LYTE, Invitrogen Ltd., Paisley, UK).
The inhibitory activities of test compounds against the p38 MAPKα isoform (MAPK14: Invitrogen), are evaluated indirectly by determining the level of activation/phosphorylation of the down-stream molecule, MAPKAP-K2. The p38 MAPKα protein (80 ng/mL, 2.5 μL) is mixed with the test compound (2.5 μL of either 4 μg/mL, 0.4 μg/mL, 0.04 μg/mL or 0.004 μg/mL) for 2 hr at RT. […] The mixture is incubated for 1 hr at RT. Development reagent (protease, […]) is added for 1 hr prior to detection in a fluorescence microplate reader (Varioskan® Flash, ThermoFisher Scientific).
This method follows the same steps as Method 1 above, but utilises a higher concentration of the p38 MAPKα protein (2.5 μL of 200 ng/mL protein instead of 2.5 μL of 80 ng/mL protein) for mixing with the test compound.
(§2) In all cases, the site-specific protease cleaves non-phosphorylated peptide only and eliminates the FRET signal. Phosphorylation levels of each reaction are calculated using the ratio of coumarin emission (donor) over fluorescein emission (acceptor), for which high ratios indicate high phosphorylation and low ratios indicate low phosphorylation levels. The percentage inhibition of each reaction is calculated relative to non-inhibited control and the 50% inhibitory concentration (IC50 value) is then calculated from the concentration-response curve.

Experiment [1] deals with PBMCs. In words: IL-2 and IFN gamma release in CD3/CD28 stimulated PBMC cells. The settings on record: Homo sapiens. The experiment is classed as cell-based. How it is done:
PBMCs from healthy subjects are separated from whole blood using a density gradient (Lymphoprep, Axis-Shield Healthcare). Cells are added to a 96 well plate pre-coated with a mixture of CD3/CD38 monoclonal antibodies (0.3 μg/mL eBioscience and 3 μg/mL BD Pharmingen respectively). Compound at the desired concentration is then added to the wells and the plate left for 3 days under normal tissue culture conditions. Supernatants are harvested and IL-2 and IFN gamma release determined by Sandwich ELISA (Duo-set, R&D System). The IC50 is determined from the dose response curve.

The target in a further experiment is c-Src (Homo sapiens (Human), UniProt P12931). In words: c-Src enzyme inhibition, Z-LYTE FRET. The experiment is classed as biochemical. How it is done:
as §1
(§3) The inhibitory activities of compounds of the invention against c-Src and Syk enzymes (Invitrogen), are evaluated in a similar fashion to that described hereinabove. The relevant enzyme (3000 ng/mL or 2000 ng/mL respectively, 2.5 μL) is incubated with the test compound (either 4 μg/mL, 0.4 μg/mL, 0.04 μg/mL, or 0.004 μg/mL, 2.5 μL each) for 2 hr at RT. The FRET peptides (8 μM. 2.5 μL), and appropriate ATP solutions (2.5 μL, 800 μM for c-Src, and 60 μM ATP for Syk) are then added to the enzymes/compound mixtures and incubated for 1 hr. Development reagent (protease, 5 μL) is added for 1 hr prior to detection in a fluorescence microplate reader (Varioskan® Flash, ThermoFisher Scientific).
as §2

The subject of a further experiment is HT29 cells. In words: IL-1-induced IL-8 release in HT29 cells. The experiment is classed as cell-based. As to conditions: Homo sapiens, HT-29, IL-1β-stimulated HT29 cells, read-out: IC50 Values for Inhibition of Cytokine Release HT29 cells IL-8. How it is done:
HT29 cells, a human colon adenocarcinoma cell line, are plated in a 96 well plate (24 hrs) and pre-treated with compounds at the desired concentration for 2 hours before addition of 5 ng/mL of IL-1β (Abcam) for 24 hours. Supernatants are harvested for IL-8 quantification by Sandwich ELISA (Duo-set, R&D System). The IC50 is determined from the dose response curve.

Experiment [2] concerns PBMCs. In words: LPS-induced TNFα/IL-8 release in PBMC cells. The experiment is classed as cell-based. The settings on record: Homo sapiens, LPS-stimulated PBMCs. The protocol:
Peripheral blood mononuclear cells (PBMCs) from healthy subjects are separated from whole blood using a density gradient (Lymphoprep, Axis-Shield Healthcare). The PBMCs are seeded in 96 well plates and treated with compounds at the desired concentration for 2 hours before addition of 1 ng/mL LPS (Escherichia Coli 0111:B4 from Sigma Aldrich) for 24 hours under normal tissue culture conditions (37° C., 5% CO2). The supernatant is harvested for determination of IL-8 and TNFα concentrations by sandwich ELISA (Duo-set, R&D systems) and read on the fluorescence microplate reader (Varioskan® Flash, ThermoFisher Scientific). The concentration at 50% inhibition (IC50) of IL-8 and TNFα production is calculated from the dose response curve.

A further experiment deals with Syk (Homo sapiens (Human), UniProt P43405). In words: Syk enzyme inhibition, Z-LYTE FRET. The experiment is classed as biochemical. The protocol:
as §1, §3, §2

For another experiment, the target named is GSK3α (Homo sapiens (Human), UniProt P49840). In words: GSK 3α enzyme inhibition (Method 2), Z-LYTE FRET. The experiment is classed as biochemical. How it is done: as §1
Sequence of GSK3α (P49840 whole entry, canonical isoform): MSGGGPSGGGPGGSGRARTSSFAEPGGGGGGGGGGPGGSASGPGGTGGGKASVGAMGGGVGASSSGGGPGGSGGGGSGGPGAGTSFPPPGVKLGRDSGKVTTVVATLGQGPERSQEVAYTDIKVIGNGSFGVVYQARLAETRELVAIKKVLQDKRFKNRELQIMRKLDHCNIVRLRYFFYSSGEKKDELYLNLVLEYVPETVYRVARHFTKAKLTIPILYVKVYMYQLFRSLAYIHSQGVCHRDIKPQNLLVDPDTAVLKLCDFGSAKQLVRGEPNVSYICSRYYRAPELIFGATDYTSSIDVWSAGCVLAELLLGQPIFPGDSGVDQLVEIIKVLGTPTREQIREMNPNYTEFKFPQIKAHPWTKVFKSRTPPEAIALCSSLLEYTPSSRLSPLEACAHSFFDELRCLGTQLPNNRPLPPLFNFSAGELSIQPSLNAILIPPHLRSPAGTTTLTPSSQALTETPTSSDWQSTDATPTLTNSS
The inhibitory activities of compounds of the invention against the GSK 3α enzyme isoform (Invitrogen), are evaluated by determining the level of activation/phosphorylation of the target peptide. The GSK3-α protein (500 ng/mL, 2.5 μL) is mixed with the test compound (2.5 μL at either 4 μg/mL, 0.4 μg/mL, 0.04 μg/mL, or 0.004 μg/mL) for 2 hr at RT. The FRET peptide (8 μM, 2.5 μL), which is a phosphorylation target for GSK3α, and ATP (40 μM, 2.5 μL) are then added to the enzyme/compound mixture and the resulting mixture incubated for 1 hr. Development reagent (protease, 5 μL) is added for 1 hr prior to detection in a fluorescence microplate reader (Varioskan® Flash, ThermoFisher Scientific).
as §2
This method follows the same steps as Method 1 above, but utilises a shorter period of mixing of the test compound (105 minutes instead of 2 hours) with the GSK3-α protein.

Another experiment has as its system d-U937 cells. In words: LPS-induced TNFα/IL-8 release in d-U937 cells. The experiment is classed as cell-based. As to conditions: Homo sapiens, dU937, LPS-stimulated d-U937 cells. The protocol: U937 cells, a human monocytic cell line, are differentiated to macrophage-type cells by incubation with phorbol myristate acetate (PMA; 100 ng/mL) for 48 to 72 hr. Cells are pre-incubated with final concentrations of test compound for 2 hr and are then stimulated with 0.1 μg/mL of LPS (from E. Coli: 0111:B4, Sigma) for 4 hr. The supernatant is collected for determination of TNFα and IL-8 concentrations by sandwich ELISA (Duo-set, R&D systems). The inhibition of TNFα production is calculated as a percentage of that achieved by 10 μg/mL of BIRB796 at each concentration of test compound by comparison against vehicle control. The relative 50% effective concentration (REC50) is determined from the resultant concentration-response curve. The inhibition of IL-8 production is calculated at each concentration of test compound by comparison with vehicle control. The 50% inhibitory concentration (IC50) is determined from the resultant concentration-response curve.

[3] abbreviates: IFNγ, read-out: IC50 Values for Inhibition of Cytokine Release PBMCs IFNγ.
Setting [4] is: IL-2, read-out: IC50 Values for Inhibition of Cytokine Release PBMCs IL-2.
[5] abbreviates: IL-8, read-out: IC50 Values for Inhibition of Cytokine Release PBMCs IL-8.
Setting [6] is: IL-8, read-out: IC50 Values for Inhibition of Cytokine Release dU937 cells IL-8.

Sequence of c-Src (P12931 whole entry, looked up): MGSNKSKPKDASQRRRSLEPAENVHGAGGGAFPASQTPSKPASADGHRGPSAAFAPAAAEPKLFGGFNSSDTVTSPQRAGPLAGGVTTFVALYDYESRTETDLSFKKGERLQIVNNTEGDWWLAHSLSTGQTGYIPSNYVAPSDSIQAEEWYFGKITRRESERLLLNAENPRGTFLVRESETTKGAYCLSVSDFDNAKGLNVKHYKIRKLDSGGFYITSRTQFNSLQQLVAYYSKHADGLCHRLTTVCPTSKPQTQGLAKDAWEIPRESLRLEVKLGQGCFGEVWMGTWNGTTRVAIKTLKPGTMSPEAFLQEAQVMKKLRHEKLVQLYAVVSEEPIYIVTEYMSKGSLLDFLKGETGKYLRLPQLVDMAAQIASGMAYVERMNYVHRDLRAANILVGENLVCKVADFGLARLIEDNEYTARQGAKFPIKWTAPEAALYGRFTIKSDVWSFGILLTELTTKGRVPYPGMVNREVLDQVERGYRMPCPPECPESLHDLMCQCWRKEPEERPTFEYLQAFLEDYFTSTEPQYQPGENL
Sequence of p38 MAPKα (Q16539 whole entry): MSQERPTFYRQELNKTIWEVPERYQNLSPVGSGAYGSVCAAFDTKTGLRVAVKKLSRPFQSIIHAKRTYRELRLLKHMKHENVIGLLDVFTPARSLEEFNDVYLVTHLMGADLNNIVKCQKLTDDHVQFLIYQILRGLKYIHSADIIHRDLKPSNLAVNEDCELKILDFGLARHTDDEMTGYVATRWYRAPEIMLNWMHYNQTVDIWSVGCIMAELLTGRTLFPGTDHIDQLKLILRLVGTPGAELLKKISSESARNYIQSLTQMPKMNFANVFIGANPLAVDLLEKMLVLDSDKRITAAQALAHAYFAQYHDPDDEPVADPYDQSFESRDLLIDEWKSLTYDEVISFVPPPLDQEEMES

One may read the IC50 as the concentration that gives 50% inhibition. As for `C#CC(C)(C)c1cc(NC(=O)Nc2ccc(Oc3ccnc(Nc4cc(OC(F)(F)F)cc(C(=O)NCCN5CCOCC5)c4)n3)c3ccccc23)n(-c2ccc(C)cc2)n1` [Example 14, 3-((4-((4-(3-(3-(2-Methylbut-3-yn-2-yl)-1-(p-tolyl)-1H-pyrazol-5-yl)ureido)naphthalen-1-yl)oxy)pyrimidin-2-yl)amino)-N-(2-morpholinoethyl)-5-(trifluoromethoxy)benzamide], the IC50 came to 273 nM at p38 MAPKα; 2 nM in the experiment with PBMCs [1] (setting [3]); 170 nM in the experiment with PBMCs [1] (setting [4]); 37 nM against c-Src; 3.6 nM in the experiment on HT29 cells; 1.4 nM with PBMCs [2] (setting [5]). In addition, the IC50 was 203 nM at Syk, 5440 nM on GSK3α and 1.8 nM in the experiment with d-U937 cells (setting [6]).

`C#CC(C)(C)c1cc(NC(=O)Nc2ccc(Oc3ccnc(Nc4ccccc4)c3)c3ccccc23)n(-c2ccc(C)cc2)n1` [Example 7, 1-(3-(2-Methylbut-3-yn-2-yl)-1-(p-tolyl)-1H-pyrazol-5-yl)-3-(4-((2-(phenylamino)pyridin-4-yl)oxy)naphthalen-1-yl)urea]: the IC50 worked out at 271 nM on p38 MAPKα; 21.8 nM in the experiment on PBMCs [1] (setting [3]); 139 nM in the experiment with PBMCs [1] (setting [4]); 81 nM on c-Src; 4 nM with PBMCs [2] (setting [5]); 185 nM on Syk. Moreover, the concentration for half-maximal inhibition (IC50) at GSK3α was more than 10000 nM.

Consider `C#CC(C)(C)c1cc(NC(=O)Nc2ccc(Oc3ccnc(Nc4cc(OC)cc(OCCN5CCOCC5)c4)n3)c3ccccc23)n(-c2ccc(C)cc2)n1` [Example 8, 1-(4-((2-((3-Methoxy-5-(2-morpholinoethoxy)phenyl)amino)pyrimidin-4-yl)oxy)-naphthalen-1-yl)-3-(3-(2-methylbut-3-yn-2-yl)-1-(p-tolyl)-1H-pyrazol-5-yl)urea], for which the IC50 against c-Src amounted to 22 nM; in the experiment on PBMCs [2] (setting [5]), 1.4 nM; against Syk, 31 nM; against GSK3α it was 2570 nM.

Turning to `C#CC(C)(C)c1cc(NC(=O)Nc2ccc(Oc3ccnc(Nc4ccccc4)n3)c3ccccc23)n(-c2ccc(C)cc2)n1` [Example 1, 1-(3-(2-Methylbut-3-yn-2-yl)-1-(p-tolyl)-1H-pyrazol-5-yl)-3-(4-((2-(phenylamino)pyrimidin-4-yl)oxy)naphthalen-1-yl)urea], the IC50 at p38 MAPKα was 85 nM; at c-Src, 60 nM; in the experiment on PBMCs [2] (setting [5]), 1.6 nM; with PBMCs [2] (TNFα, assay (b), read-out: IC50 for inhibition of TNFα release in PBMCs), 2.5 nM; against Syk, more than 1000 nM; at GSK3α it was more than 10000 nM. In addition, the half-inhibitory concentration (IC50) with d-U937 cells (setting [6]) was 3.2 nM; in the experiment with d-U937 cells (TNFα (method describes REC50 relative to BIRB796), read-out: IC50 Values for Inhibition of Cytokine Release dU937 cells TNFα), 1.4 nM.

As to `C#CC(C)(C)c1cc(NC(=O)Nc2ccc(Oc3ccnc(Nc4cccc(OCCN(C)C)n4)n3)c3ccccc23)n(-c2ccc(C)cc2)n1` [Example 10, 1-(4-((2-((6-(2-(Dimethylamino)ethoxy)pyridin-2-yl)amino)pyrimidin-4-yl)oxy)naphthalen-1-yl)-3-(3-(2-methylbut-3-yn-2-yl)-1-(p-tolyl)-1H-pyrazol-5-yl)urea], the IC50 against p38 MAPKα stood at 46 nM; with PBMCs [1] (setting [4]), 7.1 nM; in the experiment on PBMCs [2] (setting [5]), 1.7 nM; at GSK3α it was 1760 nM.

Regarding `C#CC(C)(C)c1cc(NC(=O)Nc2ccc(Oc3ccnc(Nc4cccc(OCCN5CCOCC5)n4)n3)c3ccccc23)n(-c2ccc(C)cc2)n1` [Example 16, 1-(3-(2-Methylbut-3-yn-2-yl)-1-(p-tolyl)-1H-pyrazol-5-yl)-3-(4-((2-((6-(2-morpholinoethoxy)pyridin-2-yl)amino)pyrimidin-4-yl)oxy)naphthalen-1-yl)urea], the concentration for half-maximal inhibition (IC50) against p38 MAPKα was 148 nM; at c-Src, 21 nM; in the experiment on PBMCs [2] (setting [5]), 17.7 nM; against Syk, 348 nM; against GSK3α, more than 10000 nM.
